From patent publication US10477864B2, “Microbiocidal quinoline (thio)carboxamide derivatives” (priority 2016, dated 2019)

Experiments:
[1] = tested on: Botryotinia fuckeliana (Botrytis cinerea); assay: Botryotinia fuckeliana (Botrytis cinerea) / liquid culture (gray mould); type: cell-based; settings: 72 h, read-out: control of Botryotinia fuckeliana
Gaeumannomyces graminis = Gaeumannomyces graminis / liquid culture (take-all of cereals); type: cell-based; settings: read-out: control of Gaeumannomyces graminis
[2] = tested on: Monographella nivalis (Microdochium nivale); assay: Monographella nivalis (Microdochium nivale) / liquid culture (foot rot cereals); type: cell-based; settings: 96 h, read-out: control of Monographella nivalis
Fusarium culmorum [3] = assay: whole plant or invertebrate; type: in vivo; settings: in Triticum aestivum, read-out: control of Fusarium culmorum
Fusarium culmorum [4] = assay: microbe, parasite or virus in culture; type: cell-based; settings: read-out: control of Fusarium culmorum
[5] = tested on: Glomerella lagenarium (Colletotrichum lagenarium); assay: Glomerella lagenarium (Colletotrichum lagenarium) / liquid culture (anthracnose); type: cell-based; settings: Colletotrichum orbiculare; read-out: control of Glomerella lagenarium
[6] = tested on: Magnaporthe grisea (Pyricularia oryzae); assay: microbe, parasite or virus in culture; type: cell-based; settings: 72 h, read-out: control of Magnaporthe grisea

Row | Compound | inhibition of growth at 200 ppm [1] | inhibition of growth at 200 ppm (Gaeumannomyces graminis) | inhibition of growth at 200 ppm [2] | pest or weed control at 200 ppm (Fusarium culmorum [3]) | inhibition of growth at 200 ppm (Fusarium culmorum [4]) | inhibition of growth at 200 ppm [5] | inhibition of growth at 200 ppm [6] | melting point
1 | CC(C)(NC(=O)c1cnc2ccccc2c1)C(C)(C)c1ccccc1F [Compound E-1, N-[2-(2-fluorophenyl)-1,1,2-trimethyl-propyl]quinoline-3-carboxamide] | ≥ 80% | ≥ 80% | ≥ 80% | ≥ 80% | ≥ 80% | ≥ 80% |  | 
2 | CC(C)C(C)(Cc1ccccc1)NC(=O)c1cnc2c(F)cccc2c1 (stereo not drawn) [Compound E-5, N-(1-benzyl-1,2-dimethyl-propyl)-8-fluoro-quinoline-3-carboxamide] | ≥ 80% |  | ≥ 80% | ≥ 80% | ≥ 80% | ≥ 80% | ≥ 80% | 
3 | CC(C#N)(Cc1ccc(Cl)cc1)NC(=O)c1cnc2c(F)cccc2c1 (stereo not drawn) [Compound E-7, N-[2-(4-chlorophenyl)-1-cyano-1-methyl-ethyl]-8-fluoro-quinoline-3-carboxamide] | ≥ 80% | ≥ 80% |  |  | ≥ 80% |  |  | 
4 | CC(C#N)(Cc1ccc(F)cc1F)NC(=O)c1cnc2c(F)cccc2c1 (stereo not drawn) [Compound E-8, N-[1-cyano-2-(2,4-difluorophenyl)-1-methyl-ethyl]-8-fluoro-quinoline-3-carboxamide] | ≥ 80% | ≥ 80% |  |  | ≥ 80% |  |  | 
5 | CC(C#N)(Cc1ccccc1)NC(=O)c1cnc2c(F)cccc2c1 (stereo not drawn) [Compound E-10, N-(1-cyano-1-methyl-2-phenyl-ethyl)-8-fluoro-quinoline-3-carboxamide] | ≥ 80% | ≥ 80% |  | ≥ 80% | ≥ 80% |  |  | 
6 | CC(C)(C)C(Cc1ccccc1)NC(=O)c1cnc2c(F)cccc2c1 (stereo not drawn) [Compound E-12, N-(1-benzyl-2,2-dimethyl-propyl)-8-fluoro-quinoline-3-carboxamide] | ≥ 80% |  | ≥ 80% | ≥ 80% | ≥ 80% | ≥ 80% | ≥ 80% | 163 to 164 °C
7 | CC(C)CC(C)(Cc1ccccc1)NC(=O)c1cnc2ccccc2c1 (stereo not drawn) [Compound E-13, N-(1-benzyl-1,3-dimethyl-butyl)quinoline-3-carboxamide] | ≥ 80% | ≥ 80% | ≥ 80% | ≥ 80% | ≥ 80% | ≥ 80% |  | 
8 | O=C(NC(Cc1ccccc1)CC(F)(F)F)c1cnc2c(F)cccc2c1 (stereo not drawn) [Compound E-30, N-(1-benzyl-3,3,3-trifluoro-propyl)-8-fluoro-quinoline-3-carboxamide] | ≥ 80% |  | ≥ 80% | ≥ 80% | ≥ 80% | ≥ 80% | ≥ 80% | 140 to 142 °C
9 | Cc1ccc(CC(C)(CC(C)C)NC(=O)c2cnc3c(F)cccc3c2)cc1 (stereo not drawn) [Compound E-31, N-[1,3-dimethyl-1-(p-tolylmethyl)butyl]-8-fluoro-quinoline-3-carboxamide] | ≥ 80% |  | ≥ 80% |  | ≥ 80% | ≥ 80% | ≥ 80% | 116 to 118 °C
10 | Cc1cccc(CC(C)(CC(C)C)NC(=O)c2cnc3c(F)cccc3c2)c1 (stereo not drawn) [Compound E-33, N-[1,3-dimethyl-1-(m-tolylmethyl)butyl]-8-fluoro-quinoline-3-carboxamide] | ≥ 80% |  | ≥ 80% |  | ≥ 80% | ≥ 80% | ≥ 80% | 94 to 96 °C
11 | CC(Cc1ccccc1)(CC1CC1)NC(=O)c1cnc2c(F)cccc2c1 (stereo not drawn) [Compound E-49, N-(1-benzyl-2-cyclopropyl-1-methyl-ethyl)-8-fluoro-quinoline-3-carboxamide] | ≥ 80% |  | ≥ 80% | ≥ 80% | ≥ 80% | ≥ 80% | ≥ 80% | 
12 | CC(C)CC(C)(NC(=O)c1cnc2c(F)cccc2c1)C(F)(F)c1ccccc1 (stereo not drawn) [Compound E-54, N-[1-[difluoro(phenyl)methyl]-1,3-dimethyl-butyl]-8-fluoro-quinoline-3-carboxamide] | ≥ 80% |  | ≥ 80% |  | ≥ 80% | ≥ 80% | ≥ 80% | 
13 | CC(C)(F)CC(C)(Cc1ccccc1)NC(=O)c1cnc2c(F)cccc2c1 (stereo not drawn) [Compound E-56, N-(1-benzyl-3-fluoro-1,3-dimethyl-butyl)-8-fluoro-quinoline-3-carboxamide] | ≥ 80% |  | ≥ 80% | ≥ 80% | ≥ 80% | ≥ 80% | ≥ 80% | 
14 | CC(C)(F)CC(C)(Cc1ccccc1)NC(=O)c1cnc2ccccc2c1 (stereo not drawn) [Compound E-57, N-(1-benzyl-3-fluoro-1,3-dimethyl-butyl)quinoline-3-carboxamide] | ≥ 80% |  | ≥ 80% | ≥ 80% | ≥ 80% | ≥ 80% | ≥ 80% | 
15 | CC(C)CC(C)(NC(=O)c1cnc2ccccc2c1)C(F)(F)c1ccccc1 (stereo not drawn) [Compound E-59, N-[1-[difluoro(phenyl)methyl]-1,3-dimethyl-butyl]quinoline-3-carboxamide] | ≥ 80% |  | ≥ 80% | ≥ 80% | ≥ 80% |  | ≥ 80% | 
16 | CC(Cc1ccccc1)(CC(F)(F)F)NC(=O)c1cnc2c(Cl)cccc2c1 (stereo not drawn) [Compound E-60, N-(1-benzyl-3,3,3-trifluoro-1-methyl-propyl)-8-chloro-quinoline-3-carboxamide] | ≥ 80% |  | ≥ 80% | ≥ 80% | ≥ 80% | ≥ 80% | ≥ 80% | 141 to 144 °C
17 | CC(Cc1ccccc1)(CC(F)(F)F)NC(=O)c1cnc2cc(Cl)ccc2c1 (stereo not drawn) [Compound E-69, N-(1-benzyl-3,3,3-trifluoro-1-methyl-propyl)-7-chloro-quinoline-3-carboxamide] | ≥ 80% |  |  | ≥ 80% | ≥ 80% | ≥ 80% | ≥ 80% | 174 to 176 °C
18 | CC(C)C[C@@H](Cc1ccccc1)NC(=O)c1cnc2c(F)cccc2c1 [Compound F-4, N-[(1S)-1-benzyl-3-methyl-butyl]-8-fluoro-quinoline-3-carboxamide] | ≥ 80% | ≥ 80% | ≥ 80% | ≥ 80% | ≥ 80% | ≥ 80% |  | 
19 | CC(C)C[C@](C)(Cc1ccccc1)NC(=O)c1cnc2ccccc2c1 [Compound F-5, N-[(1R)-1-benzyl-1,3-dimethyl-butyl]quinoline-3-carboxamide] | ≥ 80% | ≥ 80% | ≥ 80% | ≥ 80% | ≥ 80% | ≥ 80% |  | 
20 | CC(C)C[C@](C)(Cc1ccccc1Cl)NC(=O)c1cnc2c(F)cccc2c1 [Compound F-7, N-[(1R)-1-[(2-chlorophenyl)methyl]-1,3-dimethyl-butyl]-8-fluoro-quinoline-3-carboxamide] | ≥ 80% | ≥ 80% |  |  | ≥ 80% | ≥ 80% |  | 
21 | CC(C)C[C@@](C)(Cc1ccccc1Cl)NC(=O)c1cnc2c(F)cccc2c1 [Compound F-8, N-[(1S)-1-[(2-chlorophenyl)methyl]-1,3-dimethyl-butyl]-8-fluoro-quinoline-3-carboxamide] | ≥ 80% | ≥ 80% | ≥ 80% |  | ≥ 80% | ≥ 80% |  | 
22 | C=CC[C@](C)(Cc1ccccc1)NC(=O)c1cnc2c(F)cccc2c1 [Compound F-16, N-[(1R)-1-benzyl-1-methyl-but-3-enyl]-8-fluoro-quinoline-3-carboxamide] | ≥ 80% | ≥ 80% |  | ≥ 80% | ≥ 80% | ≥ 80% |  | 
23 | CC(C)(C)C[C@](C)(Cc1ccccc1)NC(=O)c1cnc2c(F)cccc2c1 [Compound F-17, N-[(1R)-1-benzyl-1,3,3-trimethyl-butyl]-8-fluoro-quinoline-3-carboxamide] | ≥ 80% | ≥ 80% |  | ≥ 80% | ≥ 80% | ≥ 80% |  | 
24 | CC(F)(F)C[C@](C)(Cc1ccccc1)NC(=O)c1cnc2c(F)cccc2c1 [Compound F-39, N-[(1S)-1-benzyl-3,3-difluoro-1-methyl-butyl]-8-fluoro-quinoline-3-carboxamide] | ≥ 80% |  | ≥ 80% | ≥ 80% | ≥ 80% | ≥ 80% | ≥ 80% | 
